Results reported in PubChem BioAssay (NCI).
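Grown in 96-well plates, cells were treated for 48 hours with each compound at five concentrations. Insufficient inhibition: endpoint recorded as highest concentration tested. Abbreviation: GI50, concentration required for 50% inhibition of growth. TGI denotes the concentration required for complete inhibition of growth.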

What was measured:
Test in all cases: NCI-60 cell line screen, 48 h
SN12C renal = test system: SN12C renal
PC-3 prostate = test system: PC-3 prostate
SK-MEL-2 melanoma = test system: SK-MEL-2 melanoma
UACC-257 melanoma = test system: UACC-257 melanoma
NCI-H522 lung = test system: NCI-H522 lung
HL-60(TB) leukemia = test system: HL-60(TB) leukemia
T-47D breast = test system: T-47D breast
OVCAR-4 ovarian = test system: OVCAR-4 ovarian
HOP-62 NSCLC = test system: HOP-62 NSCLC
CAKI-1 renal = test system: CAKI-1 renal
A498 renal = test system: A498 renal
NCI-H23 lung = test system: NCI-H23 lung
UACC-62 melanoma = test system: UACC-62 melanoma
MALME-3M melanoma = test system: MALME-3M melanoma
MDA-MB-231 breast = test system: MDA-MB-231 breast
IGROV1 ovarian = test system: IGROV1 ovarian
NCI-H460 lung = test system: NCI-H460 lung
HS 578T breast = test system: HS 578T breast
HCC-2998 colon = test system: HCC-2998 colon
BT-549 breast = test system: BT-549 breast
U251 CNS = test system: U251 CNS
LOX IMVI melanoma = test system: LOX IMVI melanoma
HT29 colon = test system: HT29 colon
NCI/ADR-RES ovarian = test system: NCI/ADR-RES ovarian
RPMI-8226 leukemia = test system: RPMI-8226 leukemia
HCT-116 colon = test system: HCT-116 colon
OVCAR-3 ovarian = test system: OVCAR-3 ovarian
TK-10 renal = test system: TK-10 renal
SR leukemia = test system: SR leukemia
MCF7 breast = test system: MCF7 breast
RXF 393 renal = test system: RXF 393 renal
HCT-15 colon = test system: HCT-15 colon
HOP-92 NSCLC = test system: HOP-92 NSCLC
MOLT-4 leukemia = test system: MOLT-4 leukemia
786-0 renal = test system: 786-0 renal
SK-MEL-5 melanoma = test system: SK-MEL-5 melanoma
KM12 colon = test system: KM12 colon
DU-145 prostate = test system: DU-145 prostate
SNB-75 CNS = test system: SNB-75 CNS
SF-539 CNS = test system: SF-539 CNS
SW-620 colon = test system: SW-620 colon
CCRF-CEM leukemia = test system: CCRF-CEM leukemia
UO-31 renal = test system: UO-31 renal
SK-OV-3 ovarian = test system: SK-OV-3 ovarian
OVCAR-5 ovarian = test system: OVCAR-5 ovarian
ACHN renal = test system: ACHN renal
MDA-MB-435 = test system: MDA-MB-435
SF-268 CNS = test system: SF-268 CNS
A549 NSCLC = test system: A549 NSCLC
K-562 leukemia = test system: K-562 leukemia
SK-MEL-28 melanoma = test system: SK-MEL-28 melanoma
SNB-19 CNS = test system: SNB-19 CNS
COLO 205 colon = test system: COLO 205 colon
NCI-H226 lung = test system: NCI-H226 lung
SF-295 CNS = test system: SF-295 CNS
OVCAR-8 ovarian = test system: OVCAR-8 ovarian

`CCc1ccc(CNCC(O)c2ccccc2)cc1` (configuration not stated) was tested, and the GI50 (SN12C renal) was 33.5 µM, the TGI (SN12C renal) was greater than 100 µM and the GI50 (PC-3 prostate) was 34.8 µM. For the same compound, the TGI (PC-3 prostate) was greater than 100 µM, the GI50 (SK-MEL-2 melanoma) was 17.2 µM and the TGI (SK-MEL-2 melanoma) was 33.7 µM. The GI50 (UACC-257 melanoma) was 16.2 µM, the TGI (UACC-257 melanoma) was 35.7 µM and the GI50 (NCI-H522 lung) was 24.7 µM. For the same compound, the TGI (NCI-H522 lung) was 70.5 µM, the GI50 (HL-60(TB) leukemia) was 23.4 µM and the TGI (HL-60(TB) leukemia) was 68.6 µM. The GI50 (T-47D breast) was 20.2 µM, the TGI (T-47D breast) was 51.9 µM and the GI50 (OVCAR-4 ovarian) was 29.6 µM. The TGI (OVCAR-4 ovarian) was greater than 100 µM, the GI50 (HOP-62 NSCLC) was 37.1 µM and the TGI (HOP-62 NSCLC) was greater than 100 µM. For the same compound, the GI50 (CAKI-1 renal) was 25.4 µM, the TGI (CAKI-1 renal) was greater than 100 µM and the GI50 (A498 renal) was 5.14 µM. The TGI (A498 renal) was 47.2 µM, the GI50 (NCI-H23 lung) was 49.2 µM and the TGI (NCI-H23 lung) was greater than 100 µM. The GI50 (UACC-62 melanoma) was 16.5 µM, the TGI (UACC-62 melanoma) was 32.4 µM and the GI50 (MALME-3M melanoma) was 14.8 µM. For the same compound, the TGI (MALME-3M melanoma) was 31.2 µM, the GI50 (MDA-MB-231 breast) was 13.2 µM and the TGI (MDA-MB-231 breast) was 35.7 µM. It also gave a GI50 (IGROV1 ovarian) of 47.8 µM, a TGI (IGROV1 ovarian) greater than 100 µM and a GI50 (NCI-H460 lung) of 19.1 µM. It also gave a TGI (NCI-H460 lung) of 42.8 µM, a GI50 (HS 578T breast) of 28.1 µM and a TGI (HS 578T breast) greater than 100 µM. It also gave a GI50 (HCC-2998 colon) of 17.9 µM, a TGI (HCC-2998 colon) of 36.8 µM and a GI50 (BT-549 breast) of 8.3 µM. The TGI (BT-549 breast) was greater than 100 µM, the GI50 (U251 CNS) was 17.7 µM and the TGI (U251 CNS) was 43.1 µM. For the same compound, the GI50 (LOX IMVI melanoma) was 16.4 µM, the TGI (LOX IMVI melanoma) was 34 µM and the GI50 (HT29 colon) was 21.5 µM. It also gave a TGI (HT29 colon) of 68.4 µM, a GI50 (NCI/ADR-RES ovarian) of 20.8 µM and a TGI (NCI/ADR-RES ovarian) of 71.2 µM. For the same compound, the GI50 (RPMI-8226 leukemia) was 22.7 µM, the TGI (RPMI-8226 leukemia) was 53.3 µM and the GI50 (HCT-116 colon) was 28.4 µM. It also gave a TGI (HCT-116 colon) greater than 100 µM, a GI50 (OVCAR-3 ovarian) of 25.2 µM and a TGI (OVCAR-3 ovarian) of 79.2 µM. The GI50 (TK-10 renal) was 34.2 µM, the TGI (TK-10 renal) was greater than 100 µM and the GI50 (SR leukemia) was 13.5 µM. It also gave a TGI (SR leukemia) of 49.2 µM, a GI50 (MCF7 breast) of 15.5 µM and a TGI (MCF7 breast) of 34.2 µM. It also gave a GI50 (RXF 393 renal) of 14.3 µM, a TGI (RXF 393 renal) of 45.5 µM and a GI50 (HCT-15 colon) of 17.3 µM. The TGI (HCT-15 colon) was 53 µM, the GI50 (HOP-92 NSCLC) was 6.14 µM and the TGI (HOP-92 NSCLC) was 38.1 µM. It also gave a GI50 (MOLT-4 leukemia) of 21.8 µM, a TGI (MOLT-4 leukemia) of 54.5 µM and a GI50 (786-0 renal) of 20.1 µM. The TGI (786-0 renal) was 53.8 µM, the GI50 (SK-MEL-5 melanoma) was 15.7 µM and the TGI (SK-MEL-5 melanoma) was 29.2 µM. For the same compound, the GI50 (KM12 colon) was 15 µM, the TGI (KM12 colon) was 32.1 µM and the GI50 (DU-145 prostate) was 35.5 µM. It also gave a TGI (DU-145 prostate) greater than 100 µM, a GI50 (SNB-75 CNS) of 5.39 µM and a TGI (SNB-75 CNS) of 42.2 µM. It also gave a GI50 (SF-539 CNS) of 16.5 µM, a TGI (SF-539 CNS) of 39.5 µM and a GI50 (SW-620 colon) of 18.5 µM. The TGI (SW-620 colon) was 42.9 µM, the GI50 (CCRF-CEM leukemia) was 34.5 µM and the TGI (CCRF-CEM leukemia) was greater than 100 µM. The GI50 (UO-31 renal) was 18.9 µM, the TGI (UO-31 renal) was greater than 100 µM and the GI50 (SK-OV-3 ovarian) was 63 µM. For the same compound, the TGI (SK-OV-3 ovarian) was greater than 100 µM, the GI50 (OVCAR-5 ovarian) was 18.1 µM and the TGI (OVCAR-5 ovarian) was 44.2 µM. The GI50 (ACHN renal) was 31.4 µM, the TGI (ACHN renal) was greater than 100 µM and the GI50 (MDA-MB-435) was 6.93 µM. The TGI (MDA-MB-435) was 20.1 µM, the GI50 (SF-268 CNS) was 33.6 µM and the TGI (SF-268 CNS) was greater than 100 µM. The GI50 (A549 NSCLC) was 39.2 µM, the TGI (A549 NSCLC) was greater than 100 µM and the GI50 (K-562 leukemia) was 7.85 µM. For the same compound, the TGI (K-562 leukemia) was 62.6 µM, the GI50 (SK-MEL-28 melanoma) was 14.5 µM and the TGI (SK-MEL-28 melanoma) was 28.7 µM. The GI50 (SNB-19 CNS) was 46.9 µM, the TGI (SNB-19 CNS) was greater than 100 µM and the GI50 (COLO 205 colon) was 16.6 µM. It also gave a TGI (COLO 205 colon) of 33 µM, a GI50 (NCI-H226 lung) greater than 100 µM and a TGI (NCI-H226 lung) greater than 100 µM. It also gave a GI50 (SF-295 CNS) of 16.5 µM, a TGI (SF-295 CNS) of 35.5 µM and a GI50 (OVCAR-8 ovarian) of 26.5 µM. For the same compound, the TGI (OVCAR-8 ovarian) was greater than 100 µM.
